# Test results as given in ChEMBL document CHEMBL1141046, “Design, synthesis and structure-activity relationship of a series of fragment analogues of antistasin (ATS) and ghilantens (GLS)” (Bioorg Med Chem Lett, 2005).
# pIC50: −log10 of the molar value. Square brackets hold non-standard residues; d marks the D form. Peptide text beside a SMILES is read from it. Orn = NCCC[C@H](N)C(=O)O
# Assays:
# [1] = Anticoagulant activity of compound in respect to APTT in human poor platelet plasma (PPP) at 1562.12 nM concentration was measured by the Amelung coagulometer KC4A apparatus; format: functional
# [2] = Anticoagulant activity of compound in respect to APTT in human poor platelet plasma (PPP) at 1785.28 nM concentration was measured by the Amelung coagulometer KC4A apparatus; format: functional
# [3] = Anticoagulant activity of compound in respect to APTT in human poor platelet plasma (PPP) at 1338.96 nM concentration was measured by the Amelung coagulometer KC4A apparatus; format: functional
# [4] = Concentration for doublingAPTT clotting times of human plasma; format: functional, cell-free
# [5] = Anticoagulant activity of compound in respect to APTT in human poor platelet plasma (PPP) at 1156.6 nM concentration was measured by the Amelung coagulometer KC4A apparatus; format: functional
# [6] = Anticoagulant activity of compound in respect to APTT in human poor platelet plasma (PPP) at 771 nM concentration was measured by the Amelung coagulometer KC4A apparatus; format: functional
# [7] = Anticoagulant activity of compound in respect to APTT in human poor platelet plasma (PPP) at 646.61 nM concentration was measured by the Amelung coagulometer KC4A apparatus; format: functional
# [8] = Anticoagulant activity of compound in respect to APTT in human poor platelet plasma (PPP) at 1077.7 nM concentration was measured by the Amelung coagulometer KC4A apparatus; format: functional
# [9] = Anticoagulant activity of compound in respect to APTT in human poor platelet plasma (PPP) at 211 nM concentration was measured by the Amelung coagulometer KC4A apparatus; format: functional
# [10] = Anticoagulant activity of compound in respect to APTT in human poor platelet plasma (PPP) at 894 nM concentration was measured by the Amelung coagulometer KC4A apparatus; format: functional
# [11] = Anticoagulant activity of compound in respect to APTT in human poor platelet plasma (PPP) at 1117.95 nM concentration was measured by the Amelung coagulometer KC4A apparatus; format: functional
# [12] = Anticoagulant activity of compound in respect to APTT in human poor platelet plasma (PPP) at 2235.9 nM concentration was measured by the Amelung coagulometer KC4A apparatus; format: functional
# [13] = Anticoagulant activity of compound in respect to APTT in human poor platelet plasma (PPP) at 1192 nM concentration was measured by the Amelung coagulometer KC4A apparatus; format: functional
# [14] = Anticoagulant activity of compound in respect to APTT in human poor platelet plasma (PPP) at 290 nM concentration was measured by the Amelung coagulometer KC4A apparatus; format: functional
# [15] = Anticoagulant activity of compound in respect to APTT in human poor platelet plasma (PPP) at 1043.42 nM concentration was measured by the Amelung coagulometer KC4A apparatus; format: functional
# [16] = Anticoagulant activity of compound in respect to APTT in human poor platelet plasma (PPP) at 2266.99 nM concentration was measured by the Amelung coagulometer KC4A apparatus; format: functional
# [17] = Anticoagulant activity of compound in respect to APTT in human poor platelet plasma (PPP) at 2901.75 nM concentration was measured by the Amelung coagulometer KC4A apparatus; format: functional
# [18] = Anticoagulant activity of compound in respect to APTT in human poor platelet plasma (PPP) at 2720.39 nM concentration was measured by the Amelung coagulometer KC4A apparatus; format: functional
# [19] = Anticoagulant activity of compound in respect to APTT in human poor platelet plasma (PPP) at 906.8 nM concentration was measured by the Amelung coagulometer KC4A apparatus; format: functional
# [20] = Anticoagulant activity of compound in respect to APTT in human poor platelet plasma (PPP) at 1813.59 nM concentration was measured by the Amelung coagulometer KC4A apparatus; format: functional
# [21] = Anticoagulant activity of compound in respect to APTT in human poor platelet plasma (PPP) at 2992.43 nM concentration was measured by the Amelung coagulometer KC4A apparatus; format: functional
# [22] = species on record: Homo sapiens; assay: Anticoagulant activity of compound in respect to APTT in human poor platelet plasma (PPP) at a concentration 41.89(nM) of was measured by the Amelung coagulometer KC4A apparatus; format: functional, cell-free
# [23] = Anticoagulant activity of compound in respect to APTT in human poor platelet plasma (PPP) at a concentration 802.24(nM) of was measured by the Amelung coagulometer KC4A apparatus; format: functional
# [24] = Anticoagulant activity of compound in respect to APTT in human poor platelet plasma (PPP) at a concentration 272.29(nM) of was measured by the Amelung coagulometer KC4A apparatus; format: functional
# [25] = Anticoagulant activity of compound in respect to APTT in human poor platelet plasma (PPP) at 418.91 nM concentration was measured by the Amelung coagulometer KC4A apparatus; format: functional
# [26] = Anticoagulant activity of compound in respect to APTT in human poor platelet plasma (PPP) at a concentration 523.64(nM) of was measured by the Amelung coagulometer KC4A apparatus; format: functional
# [27] = Anticoagulant activity of compound in respect to APTT in human poor platelet plasma (PPP) at 528.94 nM concentration was measured by the Amelung coagulometer KC4A apparatus; format: functional
# [28] = Anticoagulant activity of compound in respect to APTT in human poor platelet plasma (PPP) at 705.25 nM concentration was measured by the Amelung coagulometer KC4A apparatus; format: functional
# [29] = Anticoagulant activity of compound in respect to APTT in human poor platelet plasma (PPP) at 881.56 nM concentration was measured by the Amelung coagulometer KC4A apparatus; format: functional
compound,measurement,setting,value
H-PKRKLVP-OH [listing 1 of 2 here],APTT,[1],31 s
same,APTT,[2],47.1 s
same,APTT,[3],22.1 s
CC(C)C[C@H](NC(=O)[C@H](CCCCN)NC(=O)[C@H](CCCN=C(N)N)NC(=O)[C@H](CCCCN)NC(=O)[C@@H]1CCCN1C(=O)[C@@H](N)CCCN)C(=O)N[C@H](C(=O)N1CCC[C@H]1C(N)=O)C(C)C (H-[Orn]PKRKLVP-NH2) [listing 1 of 2 here],pIC50,[4],6.15
CC(C)C[C@H](NC(=O)[C@H](CCCCN)NC(=O)[C@H](CCCN=C(N)N)NC(=O)[C@H](CCCCN)NC(=O)[C@@H]1CCCN1C(=O)[C@@H](N)CCCN)C(=O)N[C@H](C(=O)N1CCC[C@H]1C(=O)O)C(C)C (H-[Orn]PKRKLVP-OH) [listing 1 of 2 here],APTT,[5],28.5 s
same,APTT,[6],22.2 s
H-KPKRKLVP-NH2,APTT,[7],28.9 s
same,APTT,[8],57.9 s
same,pIC50,[4],6.19
same,APTT,[9],8.9 s
H-PKRKLVP-OH [listing 2 of 2 here],pIC50,[4],5.81
H-KPKRKLVP-OH,APTT,[10],21.6 s
same,APTT,[11],30 s
same,APTT,[12],122.8 s
same,APTT,[13],50.9 s
same,pIC50,[4],5.95
same,APTT,[14],6.7 s
same,APTT,[15],24.1 s
CC(C)C[C@H](NC(=O)[C@H](CCCCN)NC(=O)[C@H](CCCN=C(N)N)NC(=O)[C@H](CCCCN)NC(=O)[C@@H]1CCCN1C(=O)[C@@H](N)CCCN)C(=O)N[C@H](C(=O)N1CCC[C@H]1C(=O)O)C(C)C (H-[Orn]PKRKLVP-OH) [listing 2 of 2 here],pIC50,[4],5.94
H-PKRKLVP-NH2 [listing 1 of 2 here],APTT,[16],18.8 s
same,APTT,[17],29.8 s
same,APTT,[18],25.5 s
same,APTT,[19],8.8 s
same,APTT,[20],18.6 s
same,APTT,[21],32.4 s
H-RPKLVP-OH,APTT,[22],No activity
same,APTT,[23],62.4 s
same,APTT,[24],3.8 s
same,APTT,[25],5.5 s
same,pIC50,[4],6.10
same,APTT,[26],15.6 s
H-PKRKLVP-NH2 [listing 2 of 2 here],pIC50,[4],5.54
CC(C)C[C@H](NC(=O)[C@H](CCCCN)NC(=O)[C@H](CCCN=C(N)N)NC(=O)[C@H](CCCCN)NC(=O)[C@@H]1CCCN1C(=O)[C@@H](N)CCCN)C(=O)N[C@H](C(=O)N1CCC[C@H]1C(N)=O)C(C)C (H-[Orn]PKRKLVP-NH2) [listing 2 of 2 here],APTT,[27],0.5 s
same,APTT,[28],29.3 s
same,APTT,[29],53.3 s
